Data as given in ChEMBL document CHEMBL4177628, “Discovery of a class of diheteroaromatic amines as orally bioavailable CDK1/4/6 inhibitors” (Bioorg Med Chem Lett, 2017).

Columns and labels:
[1] = biological target: Cyclin-dependent kinase 6 (Homo sapiens, UniProt Q00534); assay: Inhibition of CDK6 (unknown origin) using U-light as substrate preincubated for 1 hr followed by EDTA addition measured after 1 hr by LANCE Ultra kinase assay
[2] = biological target: Cyclin-dependent kinase 4 (Homo sapiens, UniProt P11802); assay: Inhibition of CDK4 (unknown origin) using U-light as substrate preincubated for 1 hr followed by EDTA addition measured after 1 hr by LANCE Ultra kinase assay
[3] = biological target: Cyclin-dependent kinase 1 (Homo sapiens, UniProt P06493); assay: Inhibition of CDK1 (unknown origin) using U-light as substrate preincubated for 1 hr followed by EDTA addition measured after 1 hr by LANCE Ultra kinase assay
COLO 205 [4] = assay: Antiproliferative activity against human COLO205 cells after 96 hrs by CCK-8 assay; type: functional, cell-based; details: COLO 205, 96 h
[5] = Cmax in ICR mouse at 1 mg/kg, iv; type: ADME, organism-based; parameters: dose 1 mg/kg, route intravenous; details: in vivo
[6] = AUC in ICR mouse at 1 mg/kg, iv; type: ADME, organism-based; details: in vivo
[7] = Clearance in ICR mouse at 1 mg/kg, iv; type: ADME, organism-based; details: in vivo
[8] = Volume of distribution at steady state in ICR mouse at 1 mg/kg, iv; type: ADME, organism-based; details: in vivo, read-out: Vdss
[9] = Half life in ICR mouse at 1 mg/kg, iv; type: ADME, organism-based; details: in vivo
[10] = Oral bioavailability in ICR mouse at 5 mg/kg; type: ADME, organism-based; details: in vivo
[11] = AUC in ICR mouse at 5 mg/kg, po; type: ADME, organism-based; details: in vivo
COLO 205 [12] = assay: Antitumor activity against human COLO205 cells xenografted in nude BALB/c mouse assessed as tumor volume at 100 mg/kg, po administered once daily for 3 weeks measured twice per week relative to control; type: functional
COLO 205 [13] = assay: Antitumor activity against human COLO205 cells xenografted in nude BALB/c mouse assessed as tumor volume at 25 mg/kg, po administered once daily for 3 weeks measured twice per week relative to control relative to control; type: functional
COLO 205 [14] = assay: Antitumor activity against human COLO205 cells xenografted in nude BALB/c mouse assessed as tumor volume administered once daily for 3 weeks measured twice per week relative to control; type: functional
Mus musculus = assay: Toxicity in nude BALB/c mouse xenografted with human COLO205 cells assessed as change in body weight at 25 to 100 mg/kg, po administered once daily for 3 weeks; type: organism-based; details: in vivo, 504 h

Cyclin-dependent kinase 6, sequence (Q00534 whole entry): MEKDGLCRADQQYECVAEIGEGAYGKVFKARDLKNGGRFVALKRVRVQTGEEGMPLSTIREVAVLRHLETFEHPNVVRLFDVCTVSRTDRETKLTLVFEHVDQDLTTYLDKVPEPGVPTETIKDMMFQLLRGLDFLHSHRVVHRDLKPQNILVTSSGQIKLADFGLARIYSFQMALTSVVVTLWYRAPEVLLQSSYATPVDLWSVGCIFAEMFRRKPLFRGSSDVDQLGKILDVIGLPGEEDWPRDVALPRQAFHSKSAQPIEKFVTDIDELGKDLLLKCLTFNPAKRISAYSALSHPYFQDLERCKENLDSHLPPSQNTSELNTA
Cyclin-dependent kinase 1, sequence (P06493 whole entry): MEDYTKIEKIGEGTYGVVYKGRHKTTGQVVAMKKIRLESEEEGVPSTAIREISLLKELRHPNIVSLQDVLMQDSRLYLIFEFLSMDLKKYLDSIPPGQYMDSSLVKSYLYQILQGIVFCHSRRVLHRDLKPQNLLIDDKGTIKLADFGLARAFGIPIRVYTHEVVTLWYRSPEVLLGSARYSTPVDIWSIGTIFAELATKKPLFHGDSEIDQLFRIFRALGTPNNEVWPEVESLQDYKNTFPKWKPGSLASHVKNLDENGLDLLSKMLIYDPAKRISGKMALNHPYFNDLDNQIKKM
Cyclin-dependent kinase 4, sequence (P11802 whole entry): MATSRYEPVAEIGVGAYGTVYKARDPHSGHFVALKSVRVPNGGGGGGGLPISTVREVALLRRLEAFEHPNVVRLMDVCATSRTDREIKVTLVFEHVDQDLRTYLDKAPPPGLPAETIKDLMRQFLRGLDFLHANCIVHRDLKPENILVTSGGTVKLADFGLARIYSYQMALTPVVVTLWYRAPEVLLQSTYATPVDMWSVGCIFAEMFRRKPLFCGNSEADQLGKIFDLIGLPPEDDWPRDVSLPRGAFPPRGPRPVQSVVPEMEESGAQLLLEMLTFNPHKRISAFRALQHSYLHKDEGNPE

SMILES	IC50 [1]	IC50 [2]	IC50 [3]	IC50 (COLO 205 [4])	also measured
Cc1nc2c(F)cc(-c3cc(Nc4cnc(CN5CCN(C6CCCC6)CC5)cn4)ncn3)cc2n1C(C)C	1.8 nM	2.2 nM	101 nM	160 nM	–
Cc1nc2c(F)cc(-c3cc(Nc4cnc(CN5CCN(CC(F)(F)F)CC5)cn4)ncn3)cc2n1C(C)C	5.8 nM	5.6 nM	150 nM	530 nM	–
CCN1CCN(Cc2ccc(Nc3cc(-c4cc(F)c5nc(C)n(C(C)C)c5c4)c(F)cn3)nn2)CC1	–	12.1 nM	1670 nM	630 nM	–
CCN1CCN(Cc2ccc(Nc3cc(-c4cc(F)c5nc(C)n(C(C)C)c5c4)ccn3)nc2)CC1	2.9 nM	2.9 nM	301 nM	140 nM	–
CCN1CCN(Cc2ccc(Nc3cc(-c4cc(F)c5nc(C)n(C(C)C)c5c4)ncn3)nn2)CC1	–	13.8 nM	2430 nM	520 nM	–
CCN1CCN(Cc2cnc(Nc3ncnc(-c4cc(F)c5nc(C)n(C(C)C)c5c4)c3F)cn2)CC1	–	283 nM	–	5600 nM	–
CCN1CCN(Cc2cnc(Nc3cc(-c4cc(F)c5nc(C)n(C(C)C)c5c4)c(F)cn3)cn2)CC1	1.6 nM	1.6 nM	44 nM	40 nM	Cmax [5]: 514 ng/mL; AUC [6]: 425 ng·h/mL; clearance [7]: 37.6 mL/min/kg; Vd [8]: 6.44 L/kg
CCN1CCC(C(C)c2cnc(Nc3cc(-c4cc(F)c5nc(C)n(C(C)C)c5c4)ncn3)cn2)CC1 (centres undefined)	–	18.3 nM	1410 nM	1510 nM	–
Cc1nc2c(F)cc(-c3cc(Nc4cnc(CN5CCN(C(C)C)CC5)cn4)ncn3)cc2n1C(C)C	2.3 nM	1.6 nM	97.2 nM	140 nM	–
CCN1CCN(Cc2ncc(Nc3cc(-c4cc(F)c5nc(C)n(C(C)C)c5c4)ncn3)cn2)CC1	–	5160 nM	–	–	–
COCCN1CCN(Cc2cnc(Nc3cc(-c4cc(F)c5nc(C)n(C(C)C)c5c4)ncn3)cn2)CC1	1.6 nM	3.7 nM	140 nM	140 nM	–
CCN1CCC(Cc2cnc(Nc3cc(-c4cc(F)c5nc(C)n(C(C)C)c5c4)ncn3)cn2)CC1	2.9 nM	2.4 nM	134 nM	320 nM	–
CCN1CCN(Cc2ccc(Nc3cc(-c4cc(F)c5nc(C)n(C(C)C)c5c4)ncn3)nc2)CC1	4.4 nM	3.1 nM	412 nM	260 nM	–
CCN1CCN(Cc2cnc(Nc3cc(-c4cc(F)c5nc(C)n(C(C)C)c5c4)ncn3)cn2)CC1	2.7 nM	1.5 nM	136 nM	210 nM	Cmax [5]: 998 ng/mL; AUC [6]: 571 ng·h/mL; clearance [7]: 20.8 to 28.8 mL/min/kg; Vd [8]: 0.57 L/kg; half-life [9]: 1.6 h; bioavailability [10]: 89.3%; AUC [11]: 2550 ng·h/mL; T/C (COLO 205 [12]): 12.37%; T/C (COLO 205 [13]): 54.21%; Activity (COLO 205 [14]): Dose-dependent effect; Activity (Mus musculus): Non-Toxic
Cc1nc2c(F)cc(-c3cc(Nc4cnc(CN5CCN(CC6CC6)CC5)cn4)ncn3)cc2n1C(C)C	2.2 nM	2.9 nM	103 nM	110 nM	–
CCN1CCN(Cc2ccc(Nc3ncc(F)c(-c4cc(F)c5nc(C)n(C(C)C)c5c4)n3)nc2)CC1 [ABEMACICLIB]	–	–	–	460 nM	T/C (COLO 205 [12]): 3.95%
CCN1CCN(Cc2ccc(Nc3cc(-c4cc(F)c5nc(C)n(C(C)C)c5c4)ccn3)nn2)CC1	23.6 nM	5.2 nM	801 nM	340 nM	–
CCN1CCN(Cc2cnc(Nc3cc(-c4cc(F)c5nc(C)n(C(C)C)c5c4)ccn3)cn2)CC1	1.6 nM	2.1 nM	35.8 nM	50 nM	–
CCN1CCN(Cc2cnc(Nc3cc(-c4cc(F)c5nc(C)n(C(C)C)c5c4)ncn3)nc2)CC1	–	35.9 nM	20200 nM	3740 nM	–
CCN1CCC(Oc2cnc(Nc3cc(-c4cc(F)c5nc(C)n(C(C)C)c5c4)ncn3)cn2)CC1	4 nM	8.8 nM	231 nM	460 nM	–
